Patent US5795977A, “Water soluble adenosine kinase inhibitors” (Metabasis Therapeutics, Inc., priority 1996, dated 1998)
Where a name gives a salt, the structure may show the parent alone.

Assays:
[1] = target: partially purified pig heart adenosine kinase or recombinant human adenosine kinase; assay: AK inhibition; type: biochemical; settings: 0.5 μM [U-14C] adenosine, pH 7.0, 37° C., 20 minutes
Experimental: Adenosine kinase activity was measured essentially as described by Yamada et al. Biochim. Biophys. Acta 660, 36-43 (1988) with a few minor modifications. Assay mixtures contained 50 mM TRIS-maleate buffer, pH 7.0, 0.1% BSA, 1 mM ATP 1 mM MgCl2, 0.5 μM [U-^14 C] adenosine (400-600 mCi/mmol) and varying duplicate concentrations of inhibitor. […] The amount of ^14 C-AMP was quantified by scintillation counting.

[2] = system: Rats (carrageenan paw); assay: Anti-inflammatory activity, carrageenan paw swelling; type: in vivo; settings: rat, 10 mg/kg, swelling after 3 hours; for Carrageenan Paw (% inhibition) po: oral gavage
Experimental: Carrageenan (Type λ) was suspended in sterile PBS at 1% (w/v), autoclaved for 30 minutes, and stored at room temperature. Rats were pretreated with vehicle or AK inhibitor (10 mg/kg) by oral gavage or i.p. administration and the volume of the left hind paw was measured using a water displacement plethysmometer (Stoelting Co., Wood Dale, Ill.). One hour after oral treatment or 30 minutes after i.p. treatment, the rats were briefly anesthetized, and 0.1 ml of the carrageenan solution was injected subcutaneously into the planar surface of the left hind paw. The ensuing paw swelling was measured by plethysmometry after 3 hours. The paw volume in millileters was […]. Data are presented in Table 2 as the percent inhibition of paw swelling in AK inhibitor treated animals, compared to vehicle treated control animals.

Row | Compound | IC50 [1] | Carrageenan Paw (% inhibition) ip [2] | Carrageenan Paw (% inhibition) po [2]
1 | CC(=O)NS(=O)(=O)c1ccc(Nc2ncnc3c2c(-c2ccccc2)cn3[C@@H]2O[C@H](C)[C@@H](O)[C@H]2O)cc1 [Compound 40, 4-N-[4-(N-acetylaminosulfonyl)phenyl]amino-5-phenyl-7-(5-deoxy-1-β-D-ribofuranosyl)pyrrolo[2,3-d]pyrimidine] | 3000 nM | – | –
2 | C[C@H]1O[C@@H](n2cc(-c3ccccc3)c3c(Nc4ccc(C(=O)N5CCNCC5)cc4)ncnc32)[C@H](O)[C@@H]1O [Compound 210, 4-N-[4-(4-piperazinocarbonylphenyl)]amino-5-phenyl-7-(5-deoxy-1-β-D-ribofuranosyl)pyrrolo[2,3-d]pyrimidine] | 2 nM | 23.8% | 0.0%
3 | C[C@H]1O[C@@H](n2cc(-c3ccccc3)c3c(Nc4ccc(CCN(C)C)cc4)ncnc32)[C@H](O)[C@@H]1O [Compound 7, 4-N-[4-(2-N,N-dimethylaminoethyl)phenyl]amino-5-phenyl-7-(5-deoxy-β-D-ribofuranosyl)pyrrolo[2,3-d]pyrimidine] | 1 nM | 19.0% | 7.7%
4 | NCCc1ccc(Nc2ncnc3c2c(-c2ccccc2)cn3[C@@H]2O[C@@H](CO)[C@@H](O)[C@H]2O)cc1 [Compound 16, 4-N-(4-(2-aminoethyl)phenyl)amino-5-phenyl-7-α-L-lyxofuranosylpyrrolo[2,3-d]pyrimidine] | 1 nM | 31.6% | 12.4%
5 | C[C@H]1O[C@@H](n2cc(-c3ccccc3)c3c(Nc4ccc(C(=O)NN5CCCCC5)cc4)ncnc32)[C@H](O)[C@@H]1O [Compound 212] | 2 nM | 1.8% | 0.0%
6 | C[C@H]1O[C@@H](n2cc(-c3ccccc3)c3c(Nc4ccc(C(N)=NO)cc4)ncnc32)[C@H](O)[C@@H]1O [Compound 37, 4-N-(4-amidoximephenyl)amino-5-phenyl-7-(5-deoxy-1-β-D-ribofuranosylpyrrolo[2,3-d]pyrimidine hydrochloride] | 5 nM | 17.9% | 23.3%
7 | C[C@H]1O[C@@H](n2cc(-c3ccccc3)c3c(Nc4ccc(CCO)cc4)ncnc32)[C@H](O)[C@@H]1O [Compound 2, 4-N-(4-(2-Hydroxyethyl)phenyl)amino-5-phenyl-7-(5-deoxy-β-D-ribofuranosyl)pyrrolo[2,3-d]pyrimidine] | 1 nM | 13.2% | 1.9%
8 | C[C@H]1O[C@@H](n2cc(I)c3c(NCc4cccnc4)ncnc32)[C@H](O)[C@@H]1O [Compound 44, 4-N-(3-pyridylmethylamino)-5-iodo-7-(5-deoxy-1-β-D-ribofuranosyl)pyrrolo[2,3-d]pyrimidine] | 120 nM | – | –
9 | CCN(CC)CCNC(=O)c1ccc(Nc2ncnc3c2c(-c2ccccc2)cn3[C@@H]2O[C@H](C)[C@@H](O)[C@H]2O)cc1 [Compound 211] | 0.5 nM | – | –
10 | C[C@H]1O[C@@H](n2cc(-c3ccccc3)c3c(Nc4ccc(CCN5CCNCC5)cc4)ncnc32)[C@H](O)[C@@H]1O [Compound 4, 4-N-[4-(2-(1-piperazino)ethyl)phenyl]amino-5-phenyl-7-(5-deoxy-β-D-ribofuranosyl)pyrrolo[2,3-d]pyrimidine] | – | – | 2.5%
11 | C[C@H]1O[C@@H](n2cc(I)c3c(NCc4ccccn4)ncnc32)[C@H](O)[C@@H]1O [Compound 41, 4-N-(2-pyridylmethylamino)-5-iodo-7-(5-deoxy-1-β-D-ribofuranosyl)pyrrolo[2,3-d]pyrimidine] | 70 nM | – | –
12 | C[C@H]1O[C@@H](n2cc(-c3ccccc3)c3c(Nc4ccc(C(=N)N)cc4)ncnc32)[C@H](O)[C@@H]1O [Compound 39, 4-N -(4-amidinophenyl)amino-5-phenyl-7-(5-deoxy-1-β-ribofuranosyl)pyrrolo[2,3-d]pyrimidine] | 1 nM | – | –

More lines, main results first:

Row | IC50 [1] | Compound | Carrageenan Paw (% inhibition) ip [2] | Carrageenan Paw (% inhibition) po [2]
13 | 6 nM | C[C@H]1O[C@@H](n2cc(-c3ccccc3)c3c(Nc4ccc(NC(=N)N)cc4)ncnc32)[C@H](O)[C@@H]1O [Compound 269, 4-N-(4-Guanidinophenyl)amino-5-phenyl-7-(5-deoxy-1-β-D-ribofuranosyl)pyrrolo[2,3-d]pyrimidine] | – | –
14 | 55 nM | C[C@H]1O[C@@H](n2cc(-c3cccnc3)c3c(Nc4ccccc4)ncnc32)[C@H](O)[C@@H]1O [Compound 47, 4-N-Phenylamino-5-(3-pyridino)-7-(5-deoxy-1-β-D-ribofuranosyl) pyrrolo[2,3-d]pyrimidine] | 0.0% | 9.8%
15 | 200 nM | CCN(CC)CCNC(=O)c1ccc(-c2cn([C@@H]3O[C@H](C)[C@@H](O)[C@H]3O)c3ncnc(Nc4ccc(F)cc4)c23)cc1 [Compound 200, 4-N-(4-fluorophenyl)amino-5-[4-(2-N,N-diethylaminoethyleneaminocarbonyl)phenyl]-7-(5-deoxy-1-β-D-ribofuranosyl)pyrrolo[2,3-d]pyrimidine hydrochloride] | – | –
16 | 20 nM | C[C@H]1O[C@@H](n2cc(-c3ccc(/C=C/C(=O)O)cc3)c3c(Nc4ccc(F)cc4)ncnc32)[C@H](O)[C@@H]1O [Compound 202, 4-N-(4-fluorophenyl)amino-5-[4-(2-carboxy-E-ethenyl)phenyl]-7-(5-deoxy-1-β-D-ribofuranosyl)pyrrolo[2,3-d]pyrimidine] | 3.4% | 3.9%
17 | 1 nM | C[C@H]1O[C@@H](n2cc(-c3ccccc3)c3c(Nc4ccc(CC(=O)N5CCNCC5)cc4)ncnc32)[C@H](O)[C@@H]1O [Compound 189] | 30.1% | 12.1%
18 | 9 nM | C[C@H]1O[C@@H](n2cc(-c3ccc(CN4CCNCC4)cc3)c3c(Nc4ccc(F)cc4)ncnc32)[C@H](O)[C@@H]1O [Compound 197, 4-N-(4-fluorophenyl)amino-5-[4-(N-piperazinomethyl)phenyl]-7-(5-deoxy-β-D-ribofuranosyl)pyrrolo[2,3-d]pyrimidine] | – | –
19 | 550 nM | C[C@H]1O[C@@H](n2cc(-c3ccc(C(=O)N4CCNCC4)cc3)c3c(Nc4ccc(F)cc4)ncnc32)[C@H](O)[C@@H]1O [Compound 199, 4-N-(4-fluorophenyl)amino-5-[4-(N-piperazinocarbonyl)phenyl]-7-(5-deoxy-1-β-D-ribofuranosyl)pyrrolo(2,3-d]pyrimidine hydrochloride salt] | – | –
20 | 1 nM | C[C@H]1O[C@@H](n2cc(-c3ccccc3)c3c(Nc4ccc(CCNC(=O)c5cccnc5)cc4)ncnc32)[C@H](O)[C@@H]1O [Compound 268, 4-N-[2-(Nicotinylaminoethyl)phenyl]amino-5-phenyl-7-(5-deoxy-1-β-D-ribofuranosyl)pyrrolo(2,3-d)pyrimidine] | 0.0% | 7.1%
21 | 1 nM | C[C@H]1O[C@@H](n2cc(-c3ccccc3)c3c(Nc4ccc(CCNC(=N)N)cc4)ncnc32)[C@H](O)[C@@H]1O [Compound 267, 4-N-[4-(2-Guanidinoethyl)phenyl]amino-5-phenyl-7-(5-deoxy-1-β-D-ribofuranosyl)pyrrolo[2,3-d]pyrimidine hydrochloride] | 52.3% | 15.4%
22 | 45 nM | C[C@H]1O[C@@H](n2cc(-c3ccc(CCC(=O)O)cc3)c3c(Nc4ccc(F)cc4)ncnc32)[C@H](O)[C@@H]1O [Compound 204, 4-N-(4-fluorophenyl)amino-5-[4-(2-carboxyethyl)phenyl]-7-(5-deoxy-1-β-D-ribofuranosyl)pyrrolo[2,3-d]pyrimidine] | – | –
23 | 500 nM | C[C@H]1O[C@@H](n2cc(I)c3c(NCc4nc5ccccc5[nH]4)ncnc32)[C@H](O)[C@@H]1O [Compound 45, 4-N-(2-benzimidazolylmethyl)amino-5-iodo-7-(5-deoxy-1-β-D-ribofuranosyl) pyrrolo[(2,3-d)]pyrimidine] | – | –
24 | 220 nM | OC[C@@H]1O[C@@H](n2cc(I)c3c(NCc4ccccn4)ncnc32)[C@H](O)[C@@H]1O [Compound 46, 4-N-(2-pyridylmethyl)amino-5-iodo-7-(a-L-lyxofuranosyl)pyrrolo(2,3-d)pyrimidine] | – | –
25 | 300 nM | C[C@H]1O[C@@H](n2cc(-c3cccnc3)c3c(NCc4ccccn4)ncnc32)[C@H](O)[C@@H]1O [Compound 48, 4-N-(2-pyridylmethyl)amino-5-(3-pyridino)-7-(5-deoxy-1-β-D-ribofuranosyl)pyrrolo[2,3-d]pyrimidine] | – | –
26 | 120 nM | C[C@H]1O[C@@H](n2cc(-c3ccc(CN(C)C)cc3)c3c(Nc4ccc(F)cc4)ncnc32)[C@H](O)[C@@H]1O [Compound 198, 4-N-(4-fluorophenyl)amino-5-[4-(dimethylaminomethyl)phenyl]-7-(5-deoxy-β-D-ribofuranosyl)pyrrolo[2,3-d]pyrimidine] | – | –
27 | 80 nM | C[C@H]1O[C@@H](n2cc(-c3ccccc3)c3c(Nc4ccc(CC(=O)O)cc4)ncnc32)[C@H](O)[C@@H]1O [Compound 186, 4-N-(4-Carboxymethylphenyl)amino-5-phenyl-7-(5-deoxy-1-β-D-ribofuranosyl)pyrrolo[2,3-d]pyrimidine] | – | –
